According to patent publication US10494365B2, “Small molecule inhibitor of 3-phosphoglycerate dehydrogenase and uses thereof” (The Scripps Research Institute, priority 2015, dated 2019):
“Also recorded” adds a separate entry of the source.

Assays:
MCF7 cells = experiment: Proliferation assay, MCF7; format: cell-based
Method: (§2) Cells were plated at a low density in 96 or 24 well plates in serine containing media. The following day, media was aspirated, cells were washed with PBS, and fresh serine replete or deplete media containing drug (15 μM, 30 μM) or vehicle (DMSO) was added. Cells were grown for 3 to 5 days, with drug and media changed daily before assaying relative cell numbers.

PHGDH [1] = biological target: T1, PHGDH (Homo sapiens, UniProt O43175); experiment: PHGDH assay (NADH fluorescence, PSAT1 coupled); format: biochemical; set-up: His6; made in house; host or cells: BL21 E. coli
T1 sequence (O43175 1-533): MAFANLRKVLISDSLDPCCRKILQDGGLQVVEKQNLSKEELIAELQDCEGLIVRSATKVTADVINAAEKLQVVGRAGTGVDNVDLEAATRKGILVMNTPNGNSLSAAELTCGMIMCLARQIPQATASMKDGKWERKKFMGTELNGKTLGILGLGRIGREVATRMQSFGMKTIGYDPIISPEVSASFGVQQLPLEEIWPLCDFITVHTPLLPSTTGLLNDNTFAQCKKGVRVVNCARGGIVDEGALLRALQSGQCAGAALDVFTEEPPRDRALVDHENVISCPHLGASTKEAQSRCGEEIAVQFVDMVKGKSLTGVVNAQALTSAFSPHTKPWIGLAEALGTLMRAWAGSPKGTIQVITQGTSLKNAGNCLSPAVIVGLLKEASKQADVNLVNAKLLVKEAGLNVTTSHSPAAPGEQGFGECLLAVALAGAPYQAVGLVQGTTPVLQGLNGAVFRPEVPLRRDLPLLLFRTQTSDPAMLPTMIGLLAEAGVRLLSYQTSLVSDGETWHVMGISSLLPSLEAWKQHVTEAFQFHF
Method: (§3) PHGDH activity was measured in 96-well plates by monitoring NADH fluorescence (Ex340 nm/Em460 nm) over time. PSAT1 was included to prevent product inhibition of PHGDH.

[2] = biological target: truncated form of PHGDH, which lacks the C-terminal domain (Homo sapiens, UniProt O43175)
Method: as §3

LDH = experiment: Cross-linking assay, LDH; settings: BS3 cross-linking, SDS-PAGE
Text: (§4) Samples were run on SDS-PAGE and colloidal coomassie stained (Bio-Rad).

[3] = system: MDA-MB-468 (468) breast cancer cells; experiment: LC-MS/MS metabolite profiling versus PHGDH knockdown; format: cell-based; settings: 30 μM, 24 hours
Method: MDA-MB-468 (468) breast cancer cells (PHGDH amplified) were grown in DMEM supplemented with FBS (10%), penicillin, and streptomycin. 468 cells stably expressing PHGDH knockdown constructs were generated by infecting 468 cells with lentivirus harboring pLKO.1 shRNAs against PHGDH (sh29) or (sh31) and a nontargeting control (shGFP). Following infections, cells were selected for 2 days using puromycin prior to seeding in 10 cm plates for the experiment. PHGDH knockdown cells (sh29 and sh31) were seeded in 10 cm plates, each in triplicate, and shGFP cells in sextuplet. […] After 24 hours of treatment, the media were aspirated, and cells were washed with cold PBS prior to flash freezing. Subsequently, polar metabolites were extracted with 80% methanol for 30 minutes, scraped, transferred to Eppendorf tubes, centrifuged to remove insoluble matter, and dried. […] Briefly, samples were injected and analyzed using a 5500 QTRAP triple quadrupole mass spectrometer (AB/Sciex) coupled to a Prominence UFLC system (Shimadzu). Approximately 250 metabolites were analyzed by single reaction monitoring (SRM).

[4] = system: MDA-MB-468, MDA-MB-436, HCC70, and Hs578T; experiment: cells; settings: read-out: growth inhibition
Method: as §2

Carney cells = experiment: Acute drug treatment with 13C6-glucose tracing (GCMS, LC-MS/MS); format: cell-based; settings: acute treatment; for serine labeling: dose response
Method: (§5) Carney cells acclimated to growth in MEM (Corning) were plated at 9×10^5 cells per 6 cm dish the night before. The following morning, media was replaced with fresh media containing (1) (1 μM, 15 μM, 30 μM) or vehicle control (DMSO) for 1h. Media was then aspirated, cells were washed with PBS, and fresh glucose free MEM (Gibco) supplemented with ^13C6-glucose (3 g/L, Cambridge Isotopes) and 10% dialyzed FBS containing drug or DMSO was added. After 2h, cells were quickly washed with cold PBS on ice and flash frozen. Polar metabolites were extracted as in the GCMS methods.
(§6) Polar metabolites were extracted with 2 ml MeOH/H2O (4:1) for 30 min on dry ice, scraped, transferred to 2 ml tubes, centrifuged (30 min, 15000 rpm), and the supernatants dried under vacuum. Samples were derivatized as previously described and analyzed on an Agilent 6890 GC instrument. Metabolite quantification was inferred from a standard curve and fractional enrichment of ^13C in metabolites was corrected for the natural abundance of ^13C and ^15N.
(§7) Polar metabolites were extracted and dried as in the GCMS method. Samples were resuspended in 15 μl of HPLC grade water. 5 μl of each sample was injected and analyzed using a 5500 QTRAP triple quadrupole mass spectrometer (AB/Sciex) coupled to a Prominence UFLC system (Shimadzu) as reported previously.
(§8) Newly synthesized serine has a mass-shift of 3 (M+3) due to the incorporation of glucose-derived ^13C via 3-PG. The kinetics of serine labeling were investigated.

cells = experiment: as above; format: cell-based; settings: LC-MS/MS, greater panel of metabolites
Method: as §5, §6, §7, §8

[5] = system: lactate dehydrogenase (LDH); experiment: LDH assay (kit, recombinant enzyme); format: biochemical; settings: at concentrations consistent with the PHGDH IC50 / drug concentrations used in cells
Method: (§1) Enzyme activities were assayed using kits (LDH: Sigma MAK06; MDH1: Sigma MAK196-1KT) according to the manufacturer's instructions with commercially available recombinant enzyme (LDH: Sigma 59747; MDH1: Sigma SRP6103).

PHGDH [6] = biological target: T1, PHGDH; settings: BS3 cross-linking, SDS-PAGE
Text: as §4

MDH1 = biological target: T2, MDH1 (Homo sapiens, UniProt P40925); experiment: MDH1 assay (kit, recombinant enzyme); format: biochemical; settings: at concentrations consistent with the PHGDH IC50
T2 construct: purchased Sigma SRP6103
T2 sequence (P40925 1-334): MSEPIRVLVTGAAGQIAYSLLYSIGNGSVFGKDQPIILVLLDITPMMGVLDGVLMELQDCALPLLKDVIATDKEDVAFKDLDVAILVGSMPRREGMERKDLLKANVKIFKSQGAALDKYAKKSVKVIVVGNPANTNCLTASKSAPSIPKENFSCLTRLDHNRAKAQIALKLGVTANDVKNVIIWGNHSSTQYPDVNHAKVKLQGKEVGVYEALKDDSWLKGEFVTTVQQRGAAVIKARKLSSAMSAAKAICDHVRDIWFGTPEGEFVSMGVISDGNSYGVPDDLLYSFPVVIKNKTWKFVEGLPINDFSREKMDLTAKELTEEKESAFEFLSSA
Method: as §1

MDA-MB-468 cells = experiment: Proliferation assay, MDA-MB-468; format: cell-based
Method: as §2

potency against and selectivity for PHGDH, acid derivative versus parent (PHGDH [1]; in vitro) | Compound | sensitivity of proliferation to drug (MCF7 cells; serine deplete conditions) | sensitivity of proliferation to drug (MCF7 cells; serine replete conditions) | time dependence of onset of inhibition (PHGDH [1]; increasing pre-incubation time of drug and PHGDH) | mode of inhibition (PHGDH [1]; with respect to both substrates, decreasing Vmax) | inhibition of truncated PHGDH [2] | LDH oligomerization state (LDH) | purine metabolites (AMP, dAMP, IMP, GDP, dGDP, GMP levels) [3] | decrease of intracellular serine levels ([3]; normalized to control treatment) | inhibition at 30 µM [4] | serine labeling (Carney cells; 15 μM) | serine labeling (Carney cells; 30 μM) | perturbations in labeling (3-PG, pyruvate, lactate versus serine) (Carney cells; GCMS) | glycolytic metabolites (cells) | effect on lactate dehydrogenase (LDH) [5] | PHGDH oligomerization state (PHGDH [6]) | effect on MDH1 (MDH1) | effect on proliferation (MDA-MB-468 cells)
 | CCOC(=O)c1sc(NC(=O)c2ccco2)c(SC#N)c1C [Compound (1), Ethyl 5-(furan-2-carboxamido)-3-methyl-4-thiocyanatothiophene-2-carboxylate] | partially sensitive | insensitive | progressively more potent | non-competitive | still inhibited | No such effect | down regulated | 50% | 35 to 60% | trended towards a decrease | significantly decreased | specific to serine | unperturbed | no effect; also recorded: does not inhibit | shifted the PHGDH equilibrium from the tetrameric to the dimeric state | no effect | 
equally potent | Cc1c(C(=O)O)sc(NC(=O)c2ccco2)c1SC#N [carboxylic acid derivative, 5-(furan-2-carboxamido)-3-methyl-4-thiocyanatothiophene-2-carboxylic Acid] |  |  |  |  |  |  |  |  |  |  |  |  |  |  |  |  | not effective
